{"source": "ChEMBL document CHEMBL1201862", "about": "“PubChem BioAssay data set” (2004)", "test_in_all_cases": "NCI anticancer screen, dose series, 48 h", "key": {"786-0": {"tested_on": "786-0"}, "A498": {"tested_on": "A498"}, "A549": {"tested_on": "A549"}, "ACHN": {"tested_on": "ACHN"}, "CAKI-1": {"tested_on": "CAKI-1"}, "COLO 205": {"tested_on": "COLO 205"}, "DLD-1": {"tested_on": "DLD-1"}, "DMS-114": {"tested_on": "DMS-114"}, "DMS-273": {"tested_on": "DMS-273"}, "EKVX": {"tested_on": "EKVX"}, "HCC 2998": {"tested_on": "HCC 2998"}, "HCT-116": {"tested_on": "HCT-116"}, "HCT-15": {"tested_on": "HCT-15"}, "HOP-18": {"tested_on": "HOP-18"}, "HOP-62": {"tested_on": "HOP-62"}, "HOP-92": {"tested_on": "HOP-92"}, "HT-29": {"tested_on": "HT-29"}, "IGROV-1": {"tested_on": "IGROV-1"}, "KM12": {"tested_on": "KM12"}, "LOX IMVI": {"tested_on": "LOX IMVI"}, "LXFL 529": {"tested_on": "LXFL 529"}, "M14": {"tested_on": "M14"}, "M19-MEL": {"tested_on": "M19-MEL"}, "MOLT-4": {"tested_on": "MOLT-4"}, "Malme-3M": {"tested_on": "Malme-3M"}, "NCI-H23": {"tested_on": "NCI-H23"}, "NCI-H460": {"tested_on": "NCI-H460"}, "OVCAR-3": {"tested_on": "OVCAR-3"}, "OVCAR-4": {"tested_on": "OVCAR-4"}, "OVCAR-5": {"tested_on": "OVCAR-5"}, "OVCAR-8": {"tested_on": "OVCAR-8"}, "RPMI-8226": {"tested_on": "RPMI-8226"}, "RXF 393": {"tested_on": "RXF 393"}, "RXF 631": {"tested_on": "RXF 631"}, "SF-268": {"tested_on": "SF-268"}, "SF-295": {"tested_on": "SF-295"}, "SF-539": {"tested_on": "SF-539"}, "SK-MEL-28": {"tested_on": "SK-MEL-28"}, "SK-MEL-2": {"tested_on": "SK-MEL-2"}, "SK-MEL-5": {"tested_on": "SK-MEL-5"}, "SK-OV-3": {"tested_on": "SK-OV-3"}, "SN12C": {"tested_on": "SN12C"}, "SNB-19": {"tested_on": "SNB-19"}, "SNB-75": {"tested_on": "SNB-75"}, "SNB-78": {"tested_on": "SNB-78"}, "SR": {"tested_on": "SR"}, "SW-620": {"tested_on": "SW-620"}, "TK-10": {"tested_on": "TK-10"}, "U-251": {"tested_on": "U-251"}, "UACC-257": {"tested_on": "UACC-257"}, "UACC-62": {"tested_on": "UACC-62"}, "UO-31": {"tested_on": "UO-31"}, "XF498": {"tested_on": "XF498"}}, "note": "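Test compounds were applied to cells in 96-well plates for 48 hours at 5 doses. GI50 = concentration required for 50% inhibition of growth.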 Active and inactive are the calls of the source. No stated cut-off is given here; in the data, active = GI50 up to about 1.1 µM and inactive = higher.", "data": [{"compound": "CCOc1c(Cc2ccccc2)c(=O)n2c3ccccc3n3c(=O)n(C)c(=O)c1c23", "values": [{"measurement": "GI50", "setting": "786-0", "result": "> 100 µM (inactive)"}, {"measurement": "GI50", "setting": "A498", "result": "> 100 µM (inactive)"}, {"measurement": "GI50", "setting": "A549", "result": "> 100 µM (inactive)"}, {"measurement": "GI50", "setting": "ACHN", "result": "> 100 µM (inactive)"}, {"measurement": "GI50", "setting": "CAKI-1", "result": "> 100 µM (inactive)"}, {"measurement": "GI50", "setting": "COLO 205", "result": "> 100 µM (inactive)"}, {"measurement": "GI50", "setting": "DLD-1", "result": "> 100 µM (inactive)"}, {"measurement": "GI50", "setting": "DMS-114", "result": "> 100 µM (inactive)"}, {"measurement": "GI50", "setting": "DMS-273", "result": "> 100 µM (inactive)"}, {"measurement": "GI50", "setting": "EKVX", "result": "> 100 µM (inactive)"}, {"measurement": "GI50", "setting": "HCC 2998", "result": "> 100 µM (inactive)"}, {"measurement": "GI50", "setting": "HCT-116", "result": "> 100 µM (inactive)"}, {"measurement": "GI50", "setting": "HCT-15", "result": "> 100", "unit": "µM"}, {"measurement": "GI50", "setting": "HOP-18", "result": "> 100 µM (inactive)"}, {"measurement": "GI50", "setting": "HOP-62", "result": "> 100 µM (inactive)"}, {"measurement": "GI50", "setting": "HOP-92", "result": "> 100 µM (inactive)"}, {"measurement": "GI50", "setting": "HT-29", "result": "> 100 µM (inactive)"}, {"measurement": "GI50", "setting": "IGROV-1", "result": "> 100 µM (inactive)"}, {"measurement": "GI50", "setting": "KM12", "result": "> 100 µM (inactive)"}, {"measurement": "GI50", "setting": "LOX IMVI", "result": "> 100 µM (inactive)"}, {"measurement": "GI50", "setting": "LXFL 529", "result": "> 100 µM (inactive)"}, {"measurement": "GI50", "setting": "M14", "result": "> 100 µM (inactive)"}, {"measurement": "GI50", "setting": "M19-MEL", "result": "> 100 µM (inactive)"}, {"measurement": "GI50", "setting": "MOLT-4", "result": "> 100 µM (inactive)"}, {"measurement": "GI50", "setting": "Malme-3M", "result": "> 100 µM (inactive)"}, {"measurement": "GI50", "setting": "NCI-H23", "result": "> 100 µM (inactive)"}, {"measurement": "GI50", "setting": "NCI-H460", "result": "> 100 µM (inactive)"}, {"measurement": "GI50", "setting": "OVCAR-3", "result": "> 100 µM (inactive)"}, {"measurement": "GI50", "setting": "OVCAR-4", "result": "> 100 µM (inactive)"}, {"measurement": "GI50", "setting": "OVCAR-5", "result": "> 100 µM (inactive)"}, {"measurement": "GI50", "setting": "OVCAR-8", "result": "> 100 µM (inactive)"}, {"measurement": "GI50", "setting": "RPMI-8226", "result": "> 100 µM (inactive)"}, {"measurement": "GI50", "setting": "RXF 393", "result": "> 100 µM (inactive)"}, {"measurement": "GI50", "setting": "RXF 631", "result": "> 100 µM (inactive)"}, {"measurement": "GI50", "setting": "SF-268", "result": "> 100 µM (inactive)"}, {"measurement": "GI50", "setting": "SF-295", "result": "59.6 µM (inactive)"}, {"measurement": "GI50", "setting": "SF-539", "result": "> 100 µM (inactive)"}, {"measurement": "GI50", "setting": "SK-MEL-28", "result": "> 100 µM (inactive)"}, {"measurement": "GI50", "setting": "SK-MEL-2", "result": "> 100 µM (inactive)"}, {"measurement": "GI50", "setting": "SK-MEL-5", "result": "> 100 µM (inactive)"}, {"measurement": "GI50", "setting": "SK-OV-3", "result": "> 100 µM (inactive)"}, {"measurement": "GI50", "setting": "SN12C", "result": "> 100 µM (inactive)"}, {"measurement": "GI50", "setting": "SNB-19", "result": "> 100 µM (inactive)"}, {"measurement": "GI50", "setting": "SNB-75", "result": "27.2 µM (inactive)"}, {"measurement": "GI50", "setting": "SNB-78", "result": "> 100 µM (inactive)"}, {"measurement": "GI50", "setting": "SR", "result": "> 100 µM (inactive)"}, {"measurement": "GI50", "setting": "SW-620", "result": "> 100 µM (inactive)"}, {"measurement": "GI50", "setting": "TK-10", "result": "> 100 µM (inactive)"}, {"measurement": "GI50", "setting": "U-251", "result": "> 100 µM (inactive)"}, {"measurement": "GI50", "setting": "UACC-257", "result": "> 100 µM (inactive)"}, {"measurement": "GI50", "setting": "UACC-62", "result": "> 100 µM (inactive)"}, {"measurement": "GI50", "setting": "UO-31", "result": "> 100 µM (inactive)"}, {"measurement": "GI50", "setting": "XF498", "result": "> 100 µM (inactive)"}]}]}
